Series [1] deals with Common Cutworm (Spodoptera litura). Briefly: Comparative Test Example 1: insecticidal effect on common cutworm, treated synthetic diet. It is filed as in vivo. As to conditions: 192 h, synthetic diet treated with 0.5 ml, third-instar larvae, eight days after inoculation. Here is the method: Insecticidal Effect on Common Cutworm (Spodoptera litura)
A synthetic diet packed in a plastic Petri dish was treated with 0.5 ml of a liquid chemical prepared by diluting a preparation containing compound 1-51 as an active ingredient to adjust the prescribed concentration, by adding the liquid chemical dropwise to the synthetic diet. The synthetic diet was inoculated with third-instar larvae of common cutworm, after which the dish was closed and then allowed to stand in a room thermostatted at 25° C. Eight days after the inoculation, the dead and alive were counted, and the mortality was calculated according to the following equation. The test was carried out with triplicate groups of 10 insects. [formula]
The compounds described in JP-A-2001-131141 were used as comparative compounds as follows: […]

Series [2] shares this test system. Briefly: Comparative Example 2: insecticidal effect on common cutworm by soil treatment for cabbage. As to conditions: granules in planting holes; leaf cut eleven days after transplanting; first-instar larvae; three days after inoculation. Set-up: concentration or dose not given beside the values. The format is in vivo. On the procedure:
Insecticidal Effect on Common Cutworm (Spodoptera litura) by Soil Treatment for Cabbage
At the time of trans-planting cabbage plants (cultivar: YR Seitoku), planting holes were treated with granules prepared from compound 1-51 according to Formulation Example. Eleven days after the transplanting, a leaf was cut off from the cabbage plant, placed in a plastic Petri dish, and then inoculated with 20 first-instar larvae of common cutworm. Thereafter, the dish was closed and then allowed to stand in a room thermostatted at 25° C. Three days after the inoculation, the dead and alive were counted and the mortality was calculated in the same manner as in Comparative Test Example 1.

By mortality is commonly meant the share of the test organisms that died. As to `CSCC(C)(C)NC(=O)c1c(I)cccc1C(=O)Nc1ccc(OC(F)(F)F)cc1Cl` [Compound A, N^1-[2-chloro-4-(trifluoromethoxy)phenyl]-N^2-(1,1-dimethyl-2-methylthioethyl)-3-iodophthalamide], in series [1], the mortality at 5 ppm turned out to be 5%, the mortality at 50 ppm came to 100% and the mortality at 500 ppm was 100%. Moreover, in series [2], the “Mortality, Highest leaf” value is given as 0%; the “Mortality, Second highest leaf” value worked out at 95%; the “Mortality, Third highest leaf” value is 100%.

Consider `CC(C)(CS(C)(=O)=O)NC(=O)c1c(I)cccc1C(=O)Nc1ccc(OC(F)(F)F)cc1Cl` [Compound B, N^1-[2-chloro-4-(trifluoromethoxy)phenyl]-3-iodo-N^2-(1,1-dimethyl-2-methylsulfonylethyl)phthalamide], for which, in series [1], the mortality at 5 ppm stood at 0%, the mortality at 50 ppm was 100% and the mortality at 500 ppm was 100%. In addition, in series [2], the “Mortality, Highest leaf” value amounted to 0%; the “Mortality, Second highest leaf” value was 50%; the “Mortality, Third highest leaf” value was 100%.

For the origin of these results see patent US20040097595A1, “Phthalamide derivatives, insecticides for agricultural and horticultural use and method for application thereof” (priority 2001, published 2004).
